Data from paper PMC5041959, “A high-content EMT screen identifies multiple receptor tyrosine kinase inhibitors with activity on TGFβ receptor” (Oncotarget, 2016).
Read-outs that look alike come from different tables or passages of the source.

Columns and labels:
NMuMG cells = experiment: High-content microscopy EMT screen in TGFβ-treated NMuMG cells (FA, SF, FN, cell count); assay type: cell-based, murine
SRC = SRC (Homo sapiens, UniProt P12931); experiment: Biochemical kinase profiling (33PanQinase radiometric assay); conditions: read-out: SRC IC50; ATP at apparent Km
Py2T cells = experiment: High-content microscopy EMT assay in TGFβ-treated Py2T breast cancer cells; assay type: cell-based, murine; conditions: for Emax (maximal effect on cell count): compared to reference 10 μM SB-431542 = 100%
ROCK = ROCK cellular assay (MLC Thr18/Ser19 phosphorylation ELISA in A7r5 cells); assay type: cell-based, rat; conditions: 90 min compound
[1] = Mus musculus; NMuMG; cell count decreased by 50% compared to DMSO control; read-out: Tox IC50
[2] = NMuMG, TGFβ1 2 ng/ml plus compound, 4 days; parameter decreased by 50%
[3] = NMuMG; compared to reference 10 μM SB-431542 = 100%
[4] = NMuMG, TGFβ1 2 ng/ml plus compound, 4 days; parameter decreased by 50%; read-out: FA IC50 (focal adhesion formation)
[5] = NMuMG, TGFβ1 2 ng/ml plus compound, 4 days; parameter decreased by 50%; read-out: FN IC50 (fibronectin patch formation)
[6] = NMuMG, TGFβ1 2 ng/ml plus compound, 4 days; parameter decreased by 50%; read-out: SF IC50 (stress fibers)
[7] = NMuMG; cell count decreased by 50% compared to DMSO control; read-out: Tox IC50
[8] = NMuMG; mean of IC50 values obtained for FA, SF, FN; read-out: EMT (FA/SF/FN) combined IC50
[9] = Mus musculus, read-out: CCI IC50 (cell count increase)
[10] = Mus musculus, read-out: Emax (maximal effect on cell count)
[11] = Mus musculus, read-out: Tox IC50
[12] = Py2T, cell count decreased by 50% compared to DMSO control, read-out: Tox IC50
[13] = Py2T, compared to 10 μM SB-431542, read-out: CCI IC50 (cell count increase)
[14] = NMuMG; cell count increased by 50% compared to 100% with 10 μM SB-431542
[15] = Py2T, TGFβ plus compound, 4 days

Sequence of SRC (P12931 whole entry): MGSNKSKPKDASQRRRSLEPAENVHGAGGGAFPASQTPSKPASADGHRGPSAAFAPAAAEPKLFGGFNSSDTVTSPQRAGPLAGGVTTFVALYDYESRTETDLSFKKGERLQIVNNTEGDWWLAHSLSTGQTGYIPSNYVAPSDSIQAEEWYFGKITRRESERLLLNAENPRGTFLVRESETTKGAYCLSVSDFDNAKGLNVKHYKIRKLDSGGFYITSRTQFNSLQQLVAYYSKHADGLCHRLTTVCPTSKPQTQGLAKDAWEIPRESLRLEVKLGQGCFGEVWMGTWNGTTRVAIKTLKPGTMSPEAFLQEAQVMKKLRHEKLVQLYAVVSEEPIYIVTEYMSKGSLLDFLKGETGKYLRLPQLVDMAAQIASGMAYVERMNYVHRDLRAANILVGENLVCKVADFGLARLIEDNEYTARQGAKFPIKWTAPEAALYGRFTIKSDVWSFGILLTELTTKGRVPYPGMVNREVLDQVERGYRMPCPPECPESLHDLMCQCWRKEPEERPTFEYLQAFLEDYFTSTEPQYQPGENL

Compound | IC50 (NMuMG cells; [1]) | FA IC50 (focal adhesion formation) (NMuMG cells; [2]) | FN IC50 (fibronectin patch formation) (NMuMG cells; [2]) | SF IC50 (stress fibers) (NMuMG cells; [2]) | Emax (maximal effect on cell count) (NMuMG cells; [3]) | also measured
Nc1ncn([C@H]2C[C@H](O)[C@@H](CO)O2)c(=O)n1 [5-Aza-2′-deoxycytidine] | 391 nM | n.m. | n.m. | n.m. | n.m. | 
Nc1ncn([C@@H]2O[C@H](CO)[C@@H](O)[C@H]2O)c(=O)n1 [5-Azacytidine] | 1260 nM | n.m. | n.m. | n.m. | n.m. | 
O=c1[nH]c(=O)n([C@H]2C[C@H](O)[C@@H](CO)O2)cc1Br [5-Bromo-2′-deoxyuridine] | > 3000 nM |  |  |  |  | IC50 (NMuMG cells; Mus musculus, 96 h; NMuMG, TGFβ1 2 ng/ml plus compound, 4 days; parameter decreased by 50%; read-out: FA IC50 (focal adhesion formation)): 719 nM; IC50 (NMuMG cells; Mus musculus, 96 h; NMuMG, TGFβ1 2 ng/ml plus compound, 4 days; parameter decreased by 50%; read-out: FN IC50 (fibronectin patch formation)): 321 nM; IC50 (NMuMG cells; Mus musculus, 96 h; NMuMG, TGFβ1 2 ng/ml plus compound, 4 days; parameter decreased by 50%; read-out: SF IC50 (stress fibers)): 632 nM; IC50 (NMuMG cells; Mus musculus; read-out: CCI IC50 (cell count increase)): 300 nM; Emax (NMuMG cells; Mus musculus; read-out: Emax (maximal effect on cell count)): 19%
CCN1CCN(Cc2ccc(-c3cc4c(N[C@H](C)c5ccccc5)ncnc4[nH]3)cc2)CC1 [AEE788] | 44 nM | n.m. | n.m. | n.m. | n.m. | 
CNC(=O)c1ccccc1Sc1ccc2c(/C=C/c3ccccn3)n[nH]c2c1 [Axitinib] |  |  |  |  | n.m. | 
Cc1ccc2c(c1)C(=O)C1(O)CCN(c3ccccc3)C1=N2 (stereo not shown) [Blebbistatin] |  |  |  |  | 29.4% | IC50 (NMuMG cells; [4]): 4220 nM; IC50 (NMuMG cells; [5]): 2550 nM; IC50 (NMuMG cells; [6]): 3320 nM; IC50 (NMuMG cells; [7]): > 5130 nM; IC50 (NMuMG cells; [8]): 3360 nM; IC50 (SRC): 4370 nM
COc1cc2c(Oc3ccc4[nH]c(C)cc4c3F)ncnc2cc1OCCCN1CCCC1 [Cediranib (azd2171), Cediranib] | 967 nM | n.m. | n.m. | n.m. | n.m. | 
C[C@@H](Oc1cc(-c2cnn(C3CCNCC3)c2)cnc1N)c1c(Cl)ccc(F)c1Cl [Crizotinib] | 1720 nM | n.m. | n.m. | n.m. | n.m. | 
Cc1nc(Nc2ncc(C(=O)Nc3c(C)cccc3Cl)s2)cc(N2CCN(CCO)CC2)n1 [Dasatinib] | 50.9 nM | n.m. | n.m. | n.m. | n.m. | 
c1ccc2c(c1)[I+]c1ccccc1-2 [Diphenyleneiodonium chloride (DPI), Diphenyleneiodonium chloride] | 453 nM | n.m. | n.m. | n.m. | n.m. | 
C#Cc1cccc(Nc2ncnc3cc(OCCOC)c(OCCOC)cc23)c1 [Erlotinib] | 68.5 nM | n.m. | n.m. | n.m. |  | Emax (maximal effect on cell count) (NMuMG cells): n.m.
COc1cc([C@@H]2c3cc4c(cc3[C@@H](O[C@@H]3O[C@@H]5CO[C@@H](C)O[C@H]5[C@H](O)[C@H]3O)[C@H]3COC(=O)[C@H]23)OCO4)cc(OC)c1O [Etoposide] | 1170 nM | n.m. | n.m. | n.m. | n.m. | 
O=S(=O)(c1cccc2cnccc12)N1CCCNCC1 [Fasudil] |  |  |  |  |  | IC50 (NMuMG cells; [9]): 2870 nM; IC50 (NMuMG cells; Mus musculus, read-out: EMT (FA/SF/FN) combined IC50): 3020 nM; Emax (NMuMG cells; [10]): 28.2%; IC50 (NMuMG cells; [11]): > 25000 nM; IC50 (Py2T cells; [9]): 1680 nM; Emax (Py2T cells; [10]): 53.6%; IC50 (Py2T cells; [11]): > 25000 nM
CCn1c(-c2nonc2N)nc2cnc(Oc3cccc(NC(=O)c4ccc(OCCN5CCOCC5)cc4)c3)cc21 [GSK269962] |  |  |  |  |  | IC50 (Py2T cells; Py2T, TGFβ plus compound, 4 days, read-out: FA IC50 (focal adhesions)): 2 nM; IC50 (Py2T cells; Py2T, TGFβ plus compound, 4 days, read-out: FN IC50 (fibronectin patches)): 5 nM; IC50 (Py2T cells; Py2T, TGFβ plus compound, 4 days, read-out: SF IC50 (stress fibers)): 2 nM; IC50 (Py2T cells; [12]): 564 nM; IC50 (Py2T cells; [13]): 0.5 nM; Emax (maximal effect on cell count) (Py2T cells; Py2T): 53%; IC50 (ROCK): < 3 nM
COc1cc2ncnc(Nc3ccc(F)c(Cl)c3)c2cc1OCCCN1CCOCC1 [Gefitinib] |  |  |  |  |  | Emax (maximal effect on cell count) (NMuMG cells): n.m.
O=C(Cc1ccc(-c2ccc(OCCN3CCOCC3)cc2)cn1)NCc1ccccc1 [KX2-391] |  | n.m. | n.m. | n.m. | n.m. | IC50 (NMuMG cells; [7]): 15 nM; CCI IC50 (cell count increase) (NMuMG cells; [14]): n.m.
CS(=O)(=O)CCNCc1ccc(-c2ccc3ncnc(Nc4ccc(OCc5cccc(F)c5)c(Cl)c4)c3c2)o1 [Lapatinib] | 134 nM | n.m. | n.m. | n.m. | n.m. | 
CO[C@@H]1C[C@@H](C[C@H]2CC[C@H](C)[C@H]([C@@H](C)C(=O)O)O2)O[C@]2(O[C@](C)([C@H]3CC[C@@](C)([C@@H]4O[C@@H]([C@H]5O[C@@](O)(CO)[C@H](C)C[C@@H]5C)C[C@@H]4C)O3)C[C@H]2C)[C@@H]1C [Nigericin] | < 40 nM | n.m. | n.m. | n.m. | n.m. | 
CC(C)(C)n1nc(-c2ccc(Cl)cc2)c2c(N)ncnc21 [PP2] |  | n.m. | n.m. | n.m. | n.m. | IC50 (NMuMG cells; [7]): 4730 nM; CCI IC50 (cell count increase) (NMuMG cells; [14]): n.m.
O=C(Nc1ccc(-c2cn[nH]c2)cc1)C1COc2ccccc2O1 (stereo not shown) [Rho kinase inhibitor V] |  |  |  |  | 13.4% | IC50 (NMuMG cells; [4]): 425 nM; IC50 (NMuMG cells; [5]): 374 nM; IC50 (NMuMG cells; [6]): 571 nM; IC50 (NMuMG cells; [7]): 6230 nM; IC50 (NMuMG cells; NMuMG; cell count increased by 50% compared to 100% with 10 μM SB-431542; read-out: CCI IC50 (cell count increase)): 106 nM; IC50 (NMuMG cells; [8]): 457 nM; FA IC50 (focal adhesions) (Py2T cells; [15]): n.m.; FN IC50 (fibronectin patches) (Py2T cells; [15]): n.m.; SF IC50 (stress fibers) (Py2T cells; [15]): n.m.; IC50 (Py2T cells; [12]): 2510 nM; IC50 (Py2T cells; [13]): 101 nM; Emax (maximal effect on cell count) (Py2T cells; Py2T): 33.3%; IC50 (ROCK): 150 nM
CC[C@@H](C(=O)[C@@H](C)[C@@H](O)[C@H](C)[C@@H]1O[C@@H]([C@@H](CC)C(=O)O)CC[C@@H]1C)[C@H]1O[C@]2(C=C[C@@H](O)[C@]3(CC[C@@](C)([C@H]4CC[C@](O)(CC)[C@H](C)O4)O3)O2)[C@H](C)C[C@@H]1C [Salinomycin] | 240 nM | n.m. | n.m. | n.m. |  | Emax (maximal effect on cell count) (NMuMG cells): n.m.
CCN(CC)CCNC(=O)c1c(C)[nH]c(/C=C2\C(=O)Nc3ccc(F)cc32)c1C [Sunitinib malate] | 5100 nM | n.m. | n.m. | n.m. | n.m. | 
N#CC(=C(/N)Sc1ccccc1N)/C(C#N)=C(/N)Sc1ccccc1N [U0126] |  | n.m. | n.m. | n.m. | n.m. | IC50 (NMuMG cells; [7]): 1600 nM; CCI IC50 (cell count increase) (NMuMG cells; [14]): n.m.
COc1cc2c(Nc3ccc(Br)cc3F)ncnc2cc1OCC1CCN(C)CC1 [Vandetanib] | 208 nM | n.m. | n.m. | n.m. | n.m. | 
Clc1ccc(Nc2nnc(Cc3ccncc3)c3ccccc23)cc1 [Vatalanib] | 10600 nM | n.m. | n.m. | n.m. | n.m. | 
AZD4547 |  | n.m. | n.m. | n.m. |  | CCI IC50 (cell count increase) (NMuMG cells): n.m.; Emax (maximal effect on cell count) (NMuMG cells): n.m.; IC50 (NMuMG cells; [7]): 3030 nM
Abamectin |  | n.m. | n.m. | n.m. | n.m. | IC50 (NMuMG cells; [7]): 9500 nM; CCI IC50 (cell count increase) (NMuMG cells; [14]): n.m.
